Structures can show the parent of a compound that is named as a salt.
Test system: rats
Experiment: Stereotyped behavior of rats (rating scale; score, onset and duration)
Assay type: in vivo, rat (male Sprague-Dawley)
Settings: for Duration of Effect (stereotypy): complete when scores ≤3; for Stereotypy Score for 30 min after MDO--NPA: maximum possible 18.0, N=5
Procedure: Male Sprague-Dawley (Charles River Labs.) rats (initially 175-200 g) were housed four per cage, with free access to food and water, under controlled lighting (on 7:00 a.m. to 7:00 p.m.), constant temperature 21°-23° C. and controlled humidity (40-50%). Aporphines were administered, as described below, freshly dissolved in 1 mM citric acid mixed with 0.9% (w/v) saline (1:4, vols.); this solvent was also used as a vehicle ("placebo") control. Haloperidol was given in the same medium; 2-diethyl aminoethyl-2,2 diphenylvalerate HCl (SKF-525A) was given in saline.
Stereotyped behavior was evaluated by a trained observer according to a rating scale method reported previously (Campbell and Baldessarini, 1981a). Briefly, the ratings were as follows: 0, no stereotypy, normal locomotion; 1, discontinuous sniffing, reduced locomotion; 2, continuous sniffing, only periodic exploration; 3, continuous sniffing, mouth movements, infrequent, exploratory activity, Ratings were made each 10 min. by observation for 30 sec, typically for 60 min. (maximum score=18.0/hour).
In all experiments except those which evaluated the time-course of drug effects, rats were given an injection of vehicle and then allowed to rest for 15 min. to adapt to nonspecific arousal effects, prior to a second injection of test agent (or placebo) and immediate behavioral testing. Behavioral data were evaluated by Student's t-test and are always expressed as mean ±SEM.
Data are mean values ±SEM for N=6 rats per group given doses of each aporphine (1mg/kg/, or approximately 3 umole/kg) by orogastric intubation (P.O.), or subcutaneous (S.C.) or intraperitoneal (I.P.) injection. Stereotypy was rated for one hour as described in Methods and duration is defined as complete when scores diminished to ≤3 (out of a maximum possible score of 18).
Data are mean values ±SEM (N=4 to 8 rats per condition). […] N.D. indicates "not determined." (*) Indicates a significant difference by t-test between control and oxidase inhibitor-pretreated rats (p<0.01).
Stereotypy was rated for 60 min as described in Methods. Data are means SEM (stereotypy scores, when 18=maximum in 1 hour) for N=6 rats per group; (*) indicates p<0.0001 by t test.
Data are mean values ±SEM (N=3 to 6 rats per condition) for effects of seven aporphine compounds (R=substituents, keyed to the structure above). Full chemical names for all compounds are provided in Methods. […] Data are provided for a dose of 10 mg/kg (i.p.), although doses of 1 and 5 mg/kg were also tested.

Structure (SMILES): CCCN1CCc2cccc3c2[C@H]1Cc1ccc2c(c1-3)OCO2 [MDO-NPA, (-) 10, 11-methylenedioxy-N-n-propylnoraporphine-HCl]
- Stereotypy Score (1 mg/kg I.P., rated one hour, maximum 18, N=6, mean ±SEM): 16.5 ± 0.8
- Duration of Effect (stereotypy) (1 mg/kg I.P.): 116 ± 12 min
- Duration of Effect (stereotypy) (1 mg/kg P.O.): 112 ± 20 min
- Stereotypy Score (1 mg/kg S.C., rated one hour, maximum 18, N=6, mean ±SEM): 17.5 ± 0.4
- Duration of Effect (stereotypy) (1 mg/kg S.C.): 106 ± 10 min
- Stereotypy Score for 30 min after MDO--NPA (1 mg/kg i.p.): 16.5 ± 1.2
- Stereotypy Score for 30 min after MDO--NPA (1 mg/kg p.o.): 15.5 ± 1.6
- Stereotypy Score (MDO-NPA 0.3 mg/kg, haloperidol 0, 60 min, maximum 18, N=6): 11.6 ± 0.8
- Stereotypy Score (MDO-NPA 0.3 mg/kg, haloperidol 0.3 mg/kg 30 min before, p<0.0001): 0.3 ± 0.2
- Stereotypy Score (MDO-NPA 0.3 mg/kg, haloperidol 1.0 mg/kg 30 min before, p<0.0001): 0.3 ± 0.2
- Stereotypy Score (MDO-NPA 1.0 mg/kg, haloperidol 0, 60 min, maximum 18, N=6): 16.6 ± 0.4
- Stereotypy Score (MDO-NPA 1.0 mg/kg, haloperidol 0.3 mg/kg 30 min before, p<0.0001): 0.5 ± 0.2
- Stereotypy Score (MDO-NPA 1.0 mg/kg, haloperidol 1.0 mg/kg 30 min before, p<0.0001): 1.2 ± 0.4
- Stereotypy (SKF-525A 40 mg/kg i.p. before MDO-NPA 0.30 mg/kg i.p., p<0.01 vs control): 1.7 ± 0.6
- Stereotypy (SKF-525A 40 mg/kg i.p. before MDO-NPA 1.0 mg/kg i.p., p<0.01 vs control): 0.8 ± 0.2
- Stereotypy (SKF-525A 40 mg/kg i.p. before MDO-NPA 3.0 mg/kg i.p., p<0.01 vs control): 0.8 ± 0.5
- Stereotypy (control (vehicle pretreated), MDO-NPA 0.30 mg/kg i.p., score over one hour): 12.8 ± 0.6
- Stereotypy (control (vehicle pretreated), MDO-NPA 1.0 mg/kg i.p., score over one hour): 16.5 ± 0.1
- Stereotypy (control (vehicle pretreated), MDO-NPA 3.0 mg/kg i.p., score over one hour): 16.2 ± 0.9
- dependence of duration of action on dose (i.p.): consistent increase in duration of action with increased dose
- duration of stereotyped behavioral effects vs other agents (i.p., for MDO-NPA at doses above 1 μmole/kg): exceeded that of NPA

From patent US4543256A, “(-)-10,1L Methylenedioxy-N-N-propylnoraporphine and methods employing it for inhibiting the effects of epileptic seizures and for prevention and treatment of duodenal ulcers” (Northeastern University, priority 1982, dated 1985)
